From ChEMBL document CHEMBL1201862, “PubChem BioAssay data set” (2004)
The source made the active and inactive calls.

Legend:
cells [1] = format: functional, cell-based
[2] = molecular target: T1, Nuclear receptor subfamily 0 group B member 1 (Homo sapiens, UniProt P51843); format: functional, cell-based;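 note: HEK293T cells transfected with SF-1 and DAX-1 plus StAR promoter luciferase reporter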
T1 sequence (P51843 whole entry): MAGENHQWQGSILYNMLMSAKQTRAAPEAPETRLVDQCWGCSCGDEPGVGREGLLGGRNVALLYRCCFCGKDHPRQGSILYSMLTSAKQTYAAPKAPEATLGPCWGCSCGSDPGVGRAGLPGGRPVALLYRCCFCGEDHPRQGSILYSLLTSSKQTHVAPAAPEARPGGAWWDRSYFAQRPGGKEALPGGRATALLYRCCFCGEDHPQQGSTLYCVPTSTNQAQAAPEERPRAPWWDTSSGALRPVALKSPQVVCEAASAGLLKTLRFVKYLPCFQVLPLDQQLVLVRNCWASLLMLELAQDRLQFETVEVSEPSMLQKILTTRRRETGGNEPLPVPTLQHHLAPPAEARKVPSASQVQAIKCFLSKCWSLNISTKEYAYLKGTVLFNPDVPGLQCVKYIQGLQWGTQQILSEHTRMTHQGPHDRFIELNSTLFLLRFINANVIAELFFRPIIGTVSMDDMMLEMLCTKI

[3] = molecular target: T2, Adenosylmethionine-8-amino-7-oxononanoate aminotransferase (Mycobacterium tuberculosis, UniProt P9WQ81); assay: Mycobacterium tuberculosis BioA enzyme inhibitor Measured in Biochemical System Using Plate Reader - 2163-02_Inhibitor_Dose_CherryPick_Activity.; format: functional, Mycobacterium tuberculosis UT205
T2 sequence (P9WQ81 whole entry): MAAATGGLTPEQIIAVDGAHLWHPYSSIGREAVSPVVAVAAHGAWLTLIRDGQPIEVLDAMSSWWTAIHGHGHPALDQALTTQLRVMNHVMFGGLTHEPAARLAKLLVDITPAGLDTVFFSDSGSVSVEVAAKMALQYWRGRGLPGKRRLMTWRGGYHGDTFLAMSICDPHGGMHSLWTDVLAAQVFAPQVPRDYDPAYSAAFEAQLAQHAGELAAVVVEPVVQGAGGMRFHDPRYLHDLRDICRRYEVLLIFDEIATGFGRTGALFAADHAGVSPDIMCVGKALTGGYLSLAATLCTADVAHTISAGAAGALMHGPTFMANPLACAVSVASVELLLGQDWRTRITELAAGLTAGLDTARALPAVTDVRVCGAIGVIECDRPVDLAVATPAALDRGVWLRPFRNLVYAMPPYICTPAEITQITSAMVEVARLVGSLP

Fatty acid synthase [4] = molecular target: T3, Fatty acid synthase (Homo sapiens, UniProt P49327); assay: FAS thioesterase domain inhibitors, dose response, biochemical, kinetic fluorescence intensity (AID 624326); format: functional;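 note: rate of fluorescence rise from hydrolysis of a fluorogenic O-methyl fluorescein ester substrate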
T3 sequence (P49327 whole entry, the tested form may be a part): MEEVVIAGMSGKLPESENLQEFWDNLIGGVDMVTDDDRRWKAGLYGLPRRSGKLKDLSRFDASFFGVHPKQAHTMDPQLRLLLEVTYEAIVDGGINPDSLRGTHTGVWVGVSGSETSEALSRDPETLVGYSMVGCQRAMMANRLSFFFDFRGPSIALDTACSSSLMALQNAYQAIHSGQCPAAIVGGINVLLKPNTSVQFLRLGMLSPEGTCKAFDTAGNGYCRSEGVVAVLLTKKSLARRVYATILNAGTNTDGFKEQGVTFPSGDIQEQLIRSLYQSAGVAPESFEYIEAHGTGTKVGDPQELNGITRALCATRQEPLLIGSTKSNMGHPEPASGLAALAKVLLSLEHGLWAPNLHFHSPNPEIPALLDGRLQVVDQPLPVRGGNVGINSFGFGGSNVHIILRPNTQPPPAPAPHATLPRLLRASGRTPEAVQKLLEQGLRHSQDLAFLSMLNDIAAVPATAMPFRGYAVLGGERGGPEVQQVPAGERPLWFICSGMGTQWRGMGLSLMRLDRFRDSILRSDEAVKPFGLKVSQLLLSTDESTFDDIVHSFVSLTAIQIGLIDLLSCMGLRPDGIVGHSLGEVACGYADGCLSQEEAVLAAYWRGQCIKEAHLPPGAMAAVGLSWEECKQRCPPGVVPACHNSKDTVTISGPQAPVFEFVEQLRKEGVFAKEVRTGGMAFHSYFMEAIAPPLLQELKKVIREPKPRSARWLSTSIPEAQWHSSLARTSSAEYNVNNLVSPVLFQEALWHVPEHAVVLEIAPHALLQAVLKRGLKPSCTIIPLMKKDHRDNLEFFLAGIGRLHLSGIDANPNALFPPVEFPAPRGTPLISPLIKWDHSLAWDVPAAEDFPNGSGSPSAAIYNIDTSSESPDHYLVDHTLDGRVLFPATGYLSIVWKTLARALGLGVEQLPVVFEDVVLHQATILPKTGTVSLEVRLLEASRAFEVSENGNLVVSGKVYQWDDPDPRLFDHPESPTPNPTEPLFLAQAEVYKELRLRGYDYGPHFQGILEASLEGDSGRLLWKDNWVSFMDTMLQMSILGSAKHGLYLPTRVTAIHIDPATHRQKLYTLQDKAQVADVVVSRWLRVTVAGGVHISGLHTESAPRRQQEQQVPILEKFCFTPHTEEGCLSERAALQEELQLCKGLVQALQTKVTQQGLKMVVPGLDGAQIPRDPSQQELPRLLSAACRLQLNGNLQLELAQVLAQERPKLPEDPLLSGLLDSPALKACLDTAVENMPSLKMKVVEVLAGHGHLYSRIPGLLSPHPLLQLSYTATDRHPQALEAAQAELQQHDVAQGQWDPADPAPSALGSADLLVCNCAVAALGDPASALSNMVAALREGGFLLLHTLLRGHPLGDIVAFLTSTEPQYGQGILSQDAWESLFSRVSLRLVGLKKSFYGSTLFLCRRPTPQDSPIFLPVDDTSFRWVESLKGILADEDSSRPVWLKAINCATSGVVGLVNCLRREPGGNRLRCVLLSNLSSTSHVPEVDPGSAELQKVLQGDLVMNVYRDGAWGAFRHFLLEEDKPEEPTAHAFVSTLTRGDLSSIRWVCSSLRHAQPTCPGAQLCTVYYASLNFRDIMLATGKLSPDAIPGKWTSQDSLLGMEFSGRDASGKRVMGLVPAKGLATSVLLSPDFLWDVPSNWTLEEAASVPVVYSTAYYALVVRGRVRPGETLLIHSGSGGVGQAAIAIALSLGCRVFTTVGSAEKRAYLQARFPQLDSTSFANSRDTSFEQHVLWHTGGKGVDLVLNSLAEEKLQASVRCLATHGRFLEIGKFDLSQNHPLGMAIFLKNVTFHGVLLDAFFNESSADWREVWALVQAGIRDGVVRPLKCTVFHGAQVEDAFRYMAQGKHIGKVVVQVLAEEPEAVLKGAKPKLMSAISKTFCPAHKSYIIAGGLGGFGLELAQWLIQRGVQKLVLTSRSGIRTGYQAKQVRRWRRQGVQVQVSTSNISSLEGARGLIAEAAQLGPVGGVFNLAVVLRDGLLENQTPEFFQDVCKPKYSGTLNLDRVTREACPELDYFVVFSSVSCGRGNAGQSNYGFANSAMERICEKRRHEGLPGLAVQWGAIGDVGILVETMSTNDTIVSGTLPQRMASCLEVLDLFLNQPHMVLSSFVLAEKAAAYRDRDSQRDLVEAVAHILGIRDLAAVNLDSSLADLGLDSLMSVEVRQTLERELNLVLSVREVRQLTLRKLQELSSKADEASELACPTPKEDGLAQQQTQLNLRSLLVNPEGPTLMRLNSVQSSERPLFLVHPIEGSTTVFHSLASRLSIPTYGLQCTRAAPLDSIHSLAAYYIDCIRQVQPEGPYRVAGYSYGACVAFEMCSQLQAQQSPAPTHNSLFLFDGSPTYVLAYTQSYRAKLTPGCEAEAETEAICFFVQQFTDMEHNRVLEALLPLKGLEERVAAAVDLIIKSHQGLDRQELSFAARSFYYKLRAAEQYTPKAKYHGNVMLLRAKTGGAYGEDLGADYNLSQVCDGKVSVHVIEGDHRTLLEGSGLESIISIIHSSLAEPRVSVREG

Fatty acid synthase [5] = molecular target: T3, Fatty acid synthase; assay: FAS thioesterase domain inhibitors, dose response, biochemical, endpoint fluorescence intensity, uHTS hits (AID 624327); format: functional;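 note: fluorescence from hydrolysis of an O-methyl fluorescein acyl ester substrate by the enzyme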
Steroidogenic factor 1 = Steroidogenic factor 1 (Homo sapiens, UniProt Q13285); assay: Counterscreen for inverse agonists of the liver receptor homolog-1 (LRH-1; NR5A2): Luminescence-based cell-based high throughput dose response assay to identify inverse agonists of the Steroidogenic Factor 1 Nuclear Receptor (SF1; NR5A1).; format: functional
Steroidogenic factor 1, sequence (Q13285 whole entry): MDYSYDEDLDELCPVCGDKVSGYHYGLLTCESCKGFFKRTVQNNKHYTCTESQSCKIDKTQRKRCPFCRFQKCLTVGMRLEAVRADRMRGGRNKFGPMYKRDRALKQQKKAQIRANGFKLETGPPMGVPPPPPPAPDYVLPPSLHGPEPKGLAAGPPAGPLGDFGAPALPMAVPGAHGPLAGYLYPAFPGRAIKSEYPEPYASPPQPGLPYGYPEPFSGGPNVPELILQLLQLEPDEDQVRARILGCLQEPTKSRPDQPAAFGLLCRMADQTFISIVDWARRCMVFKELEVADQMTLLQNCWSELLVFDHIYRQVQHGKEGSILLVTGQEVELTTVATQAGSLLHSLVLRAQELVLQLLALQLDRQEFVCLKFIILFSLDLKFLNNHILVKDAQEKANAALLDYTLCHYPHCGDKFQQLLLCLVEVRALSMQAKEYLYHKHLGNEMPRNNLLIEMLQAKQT

[6] = StAR promoter reporter inhibition counter-screen, dose response, counter-screen for LRH-1 inverse agonist project, cell-based, luminescence, luciferase reporter (AID 651969); format: functional
[7] = molecular target: Nuclear receptor subfamily 5 group A member 2 (Homo sapiens, UniProt O00482); format: functional, cell-based;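 note: HEK293T cells transfected with LRH-1 and a StAR promoter luciferase reporter; potency for inhibitors that lower LRH-1 driven reporter light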
Nuclear receptor subfamily 5 group A member 2, sequence (O00482 whole entry): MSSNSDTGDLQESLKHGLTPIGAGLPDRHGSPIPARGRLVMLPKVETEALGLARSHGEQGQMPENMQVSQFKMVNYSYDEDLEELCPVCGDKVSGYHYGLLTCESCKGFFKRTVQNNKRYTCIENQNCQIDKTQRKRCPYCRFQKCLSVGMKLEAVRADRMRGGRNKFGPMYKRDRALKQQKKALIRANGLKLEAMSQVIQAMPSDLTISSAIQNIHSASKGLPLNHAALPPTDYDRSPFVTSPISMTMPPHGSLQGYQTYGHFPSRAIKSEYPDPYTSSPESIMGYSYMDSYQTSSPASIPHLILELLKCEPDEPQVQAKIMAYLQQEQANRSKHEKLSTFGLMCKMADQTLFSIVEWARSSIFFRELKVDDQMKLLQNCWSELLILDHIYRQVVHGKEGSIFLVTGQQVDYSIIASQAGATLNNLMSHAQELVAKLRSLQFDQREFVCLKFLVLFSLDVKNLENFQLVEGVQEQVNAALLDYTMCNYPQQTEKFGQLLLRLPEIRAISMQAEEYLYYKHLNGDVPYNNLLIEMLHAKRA

[8] = molecular target: T4, Trace amine-associated receptor 1 (Homo sapiens, UniProt Q96RJ0); assay: Fluorescence-based cell-based high throughput dose response assay to identify agonists of the human trace amine associated receptor 1 (TAAR1).; format: functional
T4 sequence (Q96RJ0 whole entry): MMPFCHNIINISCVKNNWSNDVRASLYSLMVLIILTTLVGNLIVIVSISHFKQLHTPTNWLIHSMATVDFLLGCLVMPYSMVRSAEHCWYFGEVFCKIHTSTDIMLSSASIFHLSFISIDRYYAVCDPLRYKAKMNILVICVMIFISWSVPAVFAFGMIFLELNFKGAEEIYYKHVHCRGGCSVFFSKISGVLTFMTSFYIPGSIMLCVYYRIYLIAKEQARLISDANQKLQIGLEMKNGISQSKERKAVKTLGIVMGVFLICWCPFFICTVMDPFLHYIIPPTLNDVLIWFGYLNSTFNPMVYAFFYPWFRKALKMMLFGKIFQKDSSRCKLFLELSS

cells [9] = format: functional, cell-based; remark: listed apart in the source
cells [10] = format: functional, cell-based; remark: listed apart in the source
[11] = molecular target: T4, Trace amine-associated receptor 1; assay: Counterscreen for agonists of the human trace amine associated receptor 1 (hTAAR1): Fluorescence-based cell-based high throughput dose response assay to identify hTAAR1 agonist that also desensitize TAAR1 receptor response.; format: functional
[12] = molecular target: T5, Rac GTPase-activating protein 1 (Homo sapiens, UniProt Q9H0H5); assay: MgcRacGAP GTPase-activating activity inhibitors, confirmation, biochemical, ADP Hunter fluorescence, primary and confirmatory (AID 624330); format: functional
T5 sequence (Q9H0H5 whole entry): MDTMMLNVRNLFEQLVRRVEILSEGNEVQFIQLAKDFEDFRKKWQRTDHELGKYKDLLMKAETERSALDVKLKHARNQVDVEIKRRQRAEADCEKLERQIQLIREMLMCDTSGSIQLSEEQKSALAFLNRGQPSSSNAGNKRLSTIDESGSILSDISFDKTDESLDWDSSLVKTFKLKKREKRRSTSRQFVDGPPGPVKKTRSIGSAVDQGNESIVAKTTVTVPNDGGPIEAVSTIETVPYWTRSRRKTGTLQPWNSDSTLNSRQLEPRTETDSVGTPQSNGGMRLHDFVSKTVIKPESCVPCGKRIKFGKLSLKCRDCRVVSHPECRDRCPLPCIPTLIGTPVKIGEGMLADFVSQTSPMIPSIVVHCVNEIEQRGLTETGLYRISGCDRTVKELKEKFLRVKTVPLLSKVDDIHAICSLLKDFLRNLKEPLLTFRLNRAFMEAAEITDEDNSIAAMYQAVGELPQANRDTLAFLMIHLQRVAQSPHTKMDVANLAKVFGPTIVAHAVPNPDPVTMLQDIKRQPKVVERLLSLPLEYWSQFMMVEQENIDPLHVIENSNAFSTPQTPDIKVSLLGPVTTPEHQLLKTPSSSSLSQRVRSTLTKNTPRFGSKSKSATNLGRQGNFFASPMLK

[13] = HeLa cell cytotoxicity, dose response, cytotoxicity control for MgcRacGAP inhibitor project (AID 624300); format: functional
[14] = molecular target: T6, Short transient receptor potential channel 4 (Mus musculus, UniProt Q9QUQ5); assay: mouse TRPC4 channel inhibitors, dose response, cell-based, HEK293 TRPC4/mu-opioid, Fluo-4 calcium (AID 434942); format: functional;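 note: potency of inhibitors blocking the TRPC4 calcium response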
T6 sequence (Q9QUQ5 whole entry): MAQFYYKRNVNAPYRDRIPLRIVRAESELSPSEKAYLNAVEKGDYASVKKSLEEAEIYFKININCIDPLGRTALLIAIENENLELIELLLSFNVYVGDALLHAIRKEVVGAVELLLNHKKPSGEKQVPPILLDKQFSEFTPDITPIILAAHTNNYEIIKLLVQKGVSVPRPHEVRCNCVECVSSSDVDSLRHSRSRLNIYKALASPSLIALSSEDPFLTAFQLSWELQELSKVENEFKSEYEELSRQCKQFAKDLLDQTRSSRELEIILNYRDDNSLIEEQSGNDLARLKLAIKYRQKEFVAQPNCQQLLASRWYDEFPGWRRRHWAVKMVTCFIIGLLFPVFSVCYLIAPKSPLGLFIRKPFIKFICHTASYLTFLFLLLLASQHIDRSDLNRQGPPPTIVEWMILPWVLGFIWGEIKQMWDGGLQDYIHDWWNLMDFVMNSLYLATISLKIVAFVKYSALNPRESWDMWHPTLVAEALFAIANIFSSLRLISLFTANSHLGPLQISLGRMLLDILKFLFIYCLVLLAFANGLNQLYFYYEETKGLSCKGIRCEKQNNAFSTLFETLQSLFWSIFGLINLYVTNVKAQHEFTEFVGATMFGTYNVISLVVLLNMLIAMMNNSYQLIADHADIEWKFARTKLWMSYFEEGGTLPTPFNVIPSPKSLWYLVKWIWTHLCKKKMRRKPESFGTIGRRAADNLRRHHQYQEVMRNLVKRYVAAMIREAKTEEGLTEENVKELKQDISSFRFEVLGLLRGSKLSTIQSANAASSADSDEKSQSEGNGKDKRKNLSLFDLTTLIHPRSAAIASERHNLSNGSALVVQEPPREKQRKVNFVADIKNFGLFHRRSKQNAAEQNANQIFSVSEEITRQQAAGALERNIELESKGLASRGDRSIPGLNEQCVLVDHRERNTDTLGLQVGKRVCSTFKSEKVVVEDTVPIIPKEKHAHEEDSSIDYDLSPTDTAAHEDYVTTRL

Protein Wnt-3a = Protein Wnt-3a (Mus musculus, UniProt P27467); assay: Wnt3a-driven reporter signaling inhibition, dose response, selectivity assay for Gli-SUFU antagonist project, Wnt-LIGHT cells, luminescence (AID 651570); format: functional; conditions: read-out: IC50_Mean;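 note: Wnt-LIGHT reporter cells stimulated with conditioned medium from Wnt3a-producing cells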
Protein Wnt-3a, sequence (P27467 whole entry): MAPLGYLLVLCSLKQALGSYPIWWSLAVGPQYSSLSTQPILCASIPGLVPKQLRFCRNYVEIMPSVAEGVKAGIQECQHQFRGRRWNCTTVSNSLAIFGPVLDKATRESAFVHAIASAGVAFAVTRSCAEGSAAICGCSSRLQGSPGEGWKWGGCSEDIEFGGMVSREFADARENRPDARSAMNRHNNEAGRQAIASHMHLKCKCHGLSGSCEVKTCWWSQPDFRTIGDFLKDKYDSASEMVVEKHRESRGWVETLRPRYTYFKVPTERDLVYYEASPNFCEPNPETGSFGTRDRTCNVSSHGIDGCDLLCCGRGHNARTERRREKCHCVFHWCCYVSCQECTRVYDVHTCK

Prothrombin = Prothrombin (Homo sapiens, UniProt P00734); assay: Thrombin 1536 HTS Dose Response Confirmation. [Related pubchem assays: 1046 (Thrombin 1536 HTS; hits were confirmed in this assay)]; format: functional
[15] = molecular target: T7, DNA repair protein RAD52 homolog (Homo sapiens, UniProt P43351); format: functional, biochemical
T7 sequence (P43351 whole entry): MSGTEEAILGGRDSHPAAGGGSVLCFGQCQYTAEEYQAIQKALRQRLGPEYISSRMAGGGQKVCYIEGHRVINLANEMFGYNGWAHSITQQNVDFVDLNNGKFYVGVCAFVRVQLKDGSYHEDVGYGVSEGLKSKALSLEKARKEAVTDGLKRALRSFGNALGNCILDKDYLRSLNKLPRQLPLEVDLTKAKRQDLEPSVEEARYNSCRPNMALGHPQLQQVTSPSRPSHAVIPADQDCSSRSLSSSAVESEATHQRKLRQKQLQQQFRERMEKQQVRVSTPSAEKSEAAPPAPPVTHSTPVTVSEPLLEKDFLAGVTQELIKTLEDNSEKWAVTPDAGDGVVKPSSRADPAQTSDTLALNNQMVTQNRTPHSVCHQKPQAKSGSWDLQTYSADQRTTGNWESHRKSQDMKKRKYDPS

Nonstructural protein 1 = Nonstructural protein 1 (Influenza A virus, UniProt Q194T2); format: functional, Influenza A virus (A/California/07/2009(H1N1))
Nonstructural protein 1, sequence (Q194T2 whole entry): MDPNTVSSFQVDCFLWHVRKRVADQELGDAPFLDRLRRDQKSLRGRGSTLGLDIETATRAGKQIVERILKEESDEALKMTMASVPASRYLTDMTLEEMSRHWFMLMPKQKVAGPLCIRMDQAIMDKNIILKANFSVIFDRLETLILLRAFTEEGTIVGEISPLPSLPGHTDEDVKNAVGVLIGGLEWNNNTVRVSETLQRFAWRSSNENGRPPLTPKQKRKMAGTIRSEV

[16] = molecular target: T8, Small ubiquitin-related modifier 1 (Homo sapiens, UniProt P63165); assay: inhibitors of SUMO1 partner interactions, dose response, biochemical, FRET (AID 624383); format: functional; conditions: read-out: IC50_Mean
T8 sequence (P63165 whole entry): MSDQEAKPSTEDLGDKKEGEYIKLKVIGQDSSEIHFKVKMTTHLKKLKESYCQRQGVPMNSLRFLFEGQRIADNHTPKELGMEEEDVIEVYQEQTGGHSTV

[17] = molecular target: T8, Small ubiquitin-related modifier 1; assay: inhibitors of SUMO1 peptide binding, dose response, biochemical, fluorescence polarization, uHTS hits (AID 624382); format: functional; conditions: read-out: IC50_Mean

## CC(=O)c1cccc(-c2ccnc3c2CC(C(=O)NCc2ccccc2)O3)c1 (stereo not drawn)
Cells [1]
  IC50: > 67.4 µM (inactive)
[2]
  IC50: > 67.4 µM (inactive)

## O=C(C1CCCN(S(=O)(=O)c2cccnc2)C1)N1CCn2c1nc1ccccc12 (stereo not drawn)
[3]
  AC50: 14 µM (active)

## O=C(Nc1ccc(Cc2ccncc2)cc1)c1cccc([N+](=O)[O-])c1
Fatty acid synthase [4]
  IC50: 10.5 µM (active)
Fatty acid synthase [5]
  IC50: 7.76 µM (active)
Steroidogenic factor 1
  IC50: 1.33 µM (active)
[6]
  IC50: 35.9 µM (inactive)
[7]
  IC50: 35.9 µM (inactive)

## CNCC(C)c1ccccc1 (stereo not drawn)
[8]
  EC50: 0.598 µM (active)
Cells [9]
  EC50: > 29.9 µM (inactive)
Cells [10]
  IC50: > 29.9 µM (inactive)
[11]
  IC50: 3.54 µM (active)

## COc1cc(/C=C2\C(=O)N(C)C(=S)N2C)ccc1O
[12]
  IC50: 31.9 µM (active)
[13]
  CC50: 100 µM (active)

## CN1CCN(C(=O)c2cc(COc3ccccc3)on2)[C@@H](c2ccccc2)C1
Cells [1]
  IC50: > 67.6 µM (inactive)
[2]
  IC50: > 67.6 µM (inactive)

## CC1(C(=O)NCc2ccc(F)c(F)c2)Cc2c(-c3cccc(C(N)=O)c3)ccnc2O1 (stereo not drawn)
[3]
  AC50: 0.498 µM (active)

## CCCN1CCN(C(=O)C2CCN(c3nnc(C)c4c(C)n(-c5ccc(C)cc5)nc34)CC2)CC1
[3]
  AC50: 12.3 µM (active)

## CNc1nc(NCc2ccccc2)c2ccccc2n1
[14]
  EC50: 1.19 µM (active)
Protein Wnt-3a
  IC50: 43.1 µM (inactive)

## COc1ccc(C2c3c(-c4cc(Cl)c(C)cc4O)n[nH]c3C(=O)N2Cc2cccnc2)cc1OC (stereo not drawn)
Prothrombin
  IC50: > 50 µM (not active)
[3]
  AC50: 0.102 µM (active)

## CC(O)(c1cccnc1)c1nc(-c2cccc(C#N)c2)cs1 (stereo not drawn)
Steroidogenic factor 1
  IC50: 15.7 µM (inactive)
[6]
  IC50: 35.9 µM (inactive)
[7]
  IC50: 35.9 µM (inactive)

## COc1ccc(C(CNC(=O)c2ccc(Cl)c(NC(=O)c3cccs3)c2)N2CCCC2)cc1 (stereo not drawn)
Cells [1]
  IC50: > 67.5 µM (inactive)
[2]
  IC50: > 67.5 µM (inactive)

## CCc1cc(=O)oc2c(C)c(OCC(=O)NCCCN3CCOCC3)ccc12
Steroidogenic factor 1
  IC50: 35.9 µM (inactive)
[6]
  IC50: 35.9 µM (inactive)
[7]
  IC50: 35.9 µM (inactive)

## CCN(CC)CCNc1ccc(C)c2sc3ccc(O)cc3c(=O)c12
[12]
  IC50: 21.8 µM (active)
[15]
  AC50: 0.655 µM (active)
Nonstructural protein 1
  IC50: 19.7 µM (active)
[13]
  CC50: 31 µM (active)

## Cc1ccc(Cn2c(CCNc3nc(-c4ccc(C)cc4)cs3)nc3cc(C(=O)NCCCO)ccc32)cc1
[16]
  IC50: 9.43 µM (active)
[17]
  IC50: > 66.6 µM (inactive)

## COc1cc(C(=O)c2cc3c(cc2C)OCO3)cc(OC)c1OC
Cells [1]
  IC50: > 67.5 µM (inactive)
[2]
  IC50: > 67.5 µM (inactive)
